Patent US20100317604A1, “FORSYTHIASIDE INJECTION PREPARATION AND PREPARATIVE METHOD THEREOF” (Shanghai Youseen New Medicine Exploition Co., Ltd, priority 2006, published 2010)

Assay: Choice of the pH value (HPLC peak area of Forsythiaside)
Format: physicochemical
Conditions: for Peak Area: HPLC peak area of Forsythiaside in water
Description: Taking appropriate amount of Forsythiaside, adding water to it for dissolution. Adjusting the pH value to 3.0, 3.5, 4.0, 4.5, 5.0, 5.5, 6.0 separately, then determining the peak area value of Forsythiaside at different pH value by HPLC to investigate the influence on the content of Forsythiaside caused by different pH value.

Question: With Forsythiaside as the substance, how does the “Peak Area” value (pH Value 3.0) read?
Answer: 1410.0

Question: What about the “Peak Area” value (pH Value 3.5) of the same substance?
Answer: 1499.0

Question: What about the “Peak Area” value (pH Value 4.0) of the same substance?
Answer: 1519.8

Question: And the “Peak Area” value (pH Value 4.5)?
Answer: 1523.1

Question: What about the “Peak Area” value (pH Value 5.0) of the same substance?
Answer: 1494.5

Question: And the “Peak Area” value (pH Value 5.5)?
Answer: 1480.6

Question: What about the “Peak Area” value (pH Value 6.0) of the same substance?
Answer: 1423.5

Question: What about the “content of Forsythiaside at different pH value” (pH value 3.0-6.0) of the same substance?
Answer: not sufficiently varied

Question: And the “content of Forsythiaside at different pH value” (pH value 4.5)?
Answer: highest content
